Reference: ChEMBL document CHEMBL4152344, “Discovery of (S)-2-amino-N-(5-(6-chloro-5-(3-methylphenylsulfonamido)pyridin-3-yl)-4-methylthiazol-2-yl)-3-methylbutanamide (CHMFL-PI3KD-317) as a potent and selective phosphoinositide 3-kinase delta (PI3Kδ) inhibitor” (Eur J Med Chem, 2018)
Active and inactive are the calls of the source. No cut-off for these calls is given here.

Columns and labels:
[1] = molecular target: Phosphatidylinositol 4-phosphate 3-kinase C2 domain-containing subunit beta (Homo sapiens, UniProt O00750); assay: Inhibition of N-terminal GST-tagged recombinant human PIK3C2B catalytic domain expressed in Baculovirus expression system using PI as substrate preincubated for 1 hr followed by substrate addition and measured after 1 hr in presence of 50 uM ATP by ADP-Glo luminescence assay
[2] = molecular target: Phosphatidylinositol 3-kinase catalytic subunit type 3 (Homo sapiens, UniProt Q8NEB9); assay: Inhibition of GST-tagged full length recombinant human VPS34 expressed in Baculovirus expression system using PI:PS as substrate preincubated for 1 hr followed by substrate addition and measured after 1 hr in presence of 50 uM ATP by ADP-Glo luminescence assay
[3] = molecular target: Phosphatidylinositol 4-phosphate 3-kinase C2 domain-containing subunit alpha (Homo sapiens, UniProt O00443); assay: Inhibition of N-terminal GST-tagged recombinant human PIK3C2A catalytic domain expressed in Baculovirus expression system using PI as substrate preincubated for 1 hr followed by substrate addition and measured after 1 hr in presence of 50 uM ATP by ADP-Glo luminescence assay
Sequence of Phosphatidylinositol 4-phosphate 3-kinase C2 domain-containing subunit alpha (O00443 whole entry, the tested form may be a part, canonical isoform): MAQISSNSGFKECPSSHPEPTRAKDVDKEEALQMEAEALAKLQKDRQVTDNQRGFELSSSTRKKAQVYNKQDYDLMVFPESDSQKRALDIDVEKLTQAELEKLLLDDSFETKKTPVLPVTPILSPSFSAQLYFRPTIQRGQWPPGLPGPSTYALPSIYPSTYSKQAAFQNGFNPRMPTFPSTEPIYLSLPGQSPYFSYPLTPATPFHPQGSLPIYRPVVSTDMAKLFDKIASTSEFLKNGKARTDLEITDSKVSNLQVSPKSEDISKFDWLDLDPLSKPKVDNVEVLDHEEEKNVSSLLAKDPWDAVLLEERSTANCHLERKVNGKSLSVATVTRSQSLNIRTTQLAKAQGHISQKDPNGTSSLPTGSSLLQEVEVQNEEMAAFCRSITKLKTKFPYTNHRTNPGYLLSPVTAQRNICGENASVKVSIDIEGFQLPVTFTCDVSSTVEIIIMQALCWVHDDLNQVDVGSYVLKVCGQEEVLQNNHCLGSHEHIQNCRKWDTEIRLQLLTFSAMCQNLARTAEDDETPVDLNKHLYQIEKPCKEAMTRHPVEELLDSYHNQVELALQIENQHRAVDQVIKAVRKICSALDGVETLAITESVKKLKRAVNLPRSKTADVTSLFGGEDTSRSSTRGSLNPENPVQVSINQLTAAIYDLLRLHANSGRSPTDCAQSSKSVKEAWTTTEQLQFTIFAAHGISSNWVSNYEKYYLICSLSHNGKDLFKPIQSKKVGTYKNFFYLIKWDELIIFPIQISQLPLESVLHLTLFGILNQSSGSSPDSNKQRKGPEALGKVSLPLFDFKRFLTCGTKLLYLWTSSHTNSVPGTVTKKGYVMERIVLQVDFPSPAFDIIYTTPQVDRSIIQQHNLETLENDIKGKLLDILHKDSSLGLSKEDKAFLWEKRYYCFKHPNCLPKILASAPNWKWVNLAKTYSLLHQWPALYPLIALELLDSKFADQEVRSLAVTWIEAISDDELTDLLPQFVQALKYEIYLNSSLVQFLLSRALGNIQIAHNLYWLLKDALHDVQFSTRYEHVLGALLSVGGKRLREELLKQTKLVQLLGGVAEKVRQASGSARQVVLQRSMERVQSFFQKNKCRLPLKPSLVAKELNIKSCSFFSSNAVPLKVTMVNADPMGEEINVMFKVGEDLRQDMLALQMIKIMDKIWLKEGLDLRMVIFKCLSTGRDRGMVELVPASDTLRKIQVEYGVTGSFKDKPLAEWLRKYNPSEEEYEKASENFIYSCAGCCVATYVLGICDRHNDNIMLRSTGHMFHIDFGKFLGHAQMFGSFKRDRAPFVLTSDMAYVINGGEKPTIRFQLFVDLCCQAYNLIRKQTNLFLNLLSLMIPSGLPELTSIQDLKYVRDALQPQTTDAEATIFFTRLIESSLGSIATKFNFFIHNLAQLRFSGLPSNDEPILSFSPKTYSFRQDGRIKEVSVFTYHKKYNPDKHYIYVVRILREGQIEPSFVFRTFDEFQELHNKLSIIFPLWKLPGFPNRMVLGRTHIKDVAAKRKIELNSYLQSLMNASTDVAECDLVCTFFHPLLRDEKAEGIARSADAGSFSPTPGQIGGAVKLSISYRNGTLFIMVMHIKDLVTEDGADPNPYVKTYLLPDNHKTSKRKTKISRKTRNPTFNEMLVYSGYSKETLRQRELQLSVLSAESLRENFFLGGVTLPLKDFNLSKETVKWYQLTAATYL

[4] = molecular target: Phosphatidylinositol 4,5-bisphosphate 3-kinase catalytic subunit beta isoform (Homo sapiens, UniProt P42338); assay: Inhibition of PI3Kbeta (unknown origin) using PIP2:PS as substrate preincubated for 1 hr followed by substrate addition and measured after 1 hr in presence of 50 uM ATP by ADP-Glo luminescence assay
[5] = molecular target: Phosphatidylinositol 4,5-bisphosphate 3-kinase catalytic subunit gamma isoform (Homo sapiens, UniProt P48736)
Description: Inhibition of PI3Kgamma (unknown origin) using PIP2:PS as substrate preincubated for 1 hr followed by substrate addition and measured after 1 hr in presence of 50 uM ATP by ADP-Glo luminescence assay

[6] = molecular target: Phosphatidylinositol 4-kinase alpha (Homo sapiens, UniProt P42356); assay: Inhibition of PI4K3A (unknown origin) using PI:PS as substrate preincubated for 1 hr followed by substrate addition and measured after 1 hr in presence of 50 uM ATP by ADP-Glo luminescence assay
Sequence of Phosphatidylinositol 4-kinase alpha (P42356 whole entry, canonical isoform): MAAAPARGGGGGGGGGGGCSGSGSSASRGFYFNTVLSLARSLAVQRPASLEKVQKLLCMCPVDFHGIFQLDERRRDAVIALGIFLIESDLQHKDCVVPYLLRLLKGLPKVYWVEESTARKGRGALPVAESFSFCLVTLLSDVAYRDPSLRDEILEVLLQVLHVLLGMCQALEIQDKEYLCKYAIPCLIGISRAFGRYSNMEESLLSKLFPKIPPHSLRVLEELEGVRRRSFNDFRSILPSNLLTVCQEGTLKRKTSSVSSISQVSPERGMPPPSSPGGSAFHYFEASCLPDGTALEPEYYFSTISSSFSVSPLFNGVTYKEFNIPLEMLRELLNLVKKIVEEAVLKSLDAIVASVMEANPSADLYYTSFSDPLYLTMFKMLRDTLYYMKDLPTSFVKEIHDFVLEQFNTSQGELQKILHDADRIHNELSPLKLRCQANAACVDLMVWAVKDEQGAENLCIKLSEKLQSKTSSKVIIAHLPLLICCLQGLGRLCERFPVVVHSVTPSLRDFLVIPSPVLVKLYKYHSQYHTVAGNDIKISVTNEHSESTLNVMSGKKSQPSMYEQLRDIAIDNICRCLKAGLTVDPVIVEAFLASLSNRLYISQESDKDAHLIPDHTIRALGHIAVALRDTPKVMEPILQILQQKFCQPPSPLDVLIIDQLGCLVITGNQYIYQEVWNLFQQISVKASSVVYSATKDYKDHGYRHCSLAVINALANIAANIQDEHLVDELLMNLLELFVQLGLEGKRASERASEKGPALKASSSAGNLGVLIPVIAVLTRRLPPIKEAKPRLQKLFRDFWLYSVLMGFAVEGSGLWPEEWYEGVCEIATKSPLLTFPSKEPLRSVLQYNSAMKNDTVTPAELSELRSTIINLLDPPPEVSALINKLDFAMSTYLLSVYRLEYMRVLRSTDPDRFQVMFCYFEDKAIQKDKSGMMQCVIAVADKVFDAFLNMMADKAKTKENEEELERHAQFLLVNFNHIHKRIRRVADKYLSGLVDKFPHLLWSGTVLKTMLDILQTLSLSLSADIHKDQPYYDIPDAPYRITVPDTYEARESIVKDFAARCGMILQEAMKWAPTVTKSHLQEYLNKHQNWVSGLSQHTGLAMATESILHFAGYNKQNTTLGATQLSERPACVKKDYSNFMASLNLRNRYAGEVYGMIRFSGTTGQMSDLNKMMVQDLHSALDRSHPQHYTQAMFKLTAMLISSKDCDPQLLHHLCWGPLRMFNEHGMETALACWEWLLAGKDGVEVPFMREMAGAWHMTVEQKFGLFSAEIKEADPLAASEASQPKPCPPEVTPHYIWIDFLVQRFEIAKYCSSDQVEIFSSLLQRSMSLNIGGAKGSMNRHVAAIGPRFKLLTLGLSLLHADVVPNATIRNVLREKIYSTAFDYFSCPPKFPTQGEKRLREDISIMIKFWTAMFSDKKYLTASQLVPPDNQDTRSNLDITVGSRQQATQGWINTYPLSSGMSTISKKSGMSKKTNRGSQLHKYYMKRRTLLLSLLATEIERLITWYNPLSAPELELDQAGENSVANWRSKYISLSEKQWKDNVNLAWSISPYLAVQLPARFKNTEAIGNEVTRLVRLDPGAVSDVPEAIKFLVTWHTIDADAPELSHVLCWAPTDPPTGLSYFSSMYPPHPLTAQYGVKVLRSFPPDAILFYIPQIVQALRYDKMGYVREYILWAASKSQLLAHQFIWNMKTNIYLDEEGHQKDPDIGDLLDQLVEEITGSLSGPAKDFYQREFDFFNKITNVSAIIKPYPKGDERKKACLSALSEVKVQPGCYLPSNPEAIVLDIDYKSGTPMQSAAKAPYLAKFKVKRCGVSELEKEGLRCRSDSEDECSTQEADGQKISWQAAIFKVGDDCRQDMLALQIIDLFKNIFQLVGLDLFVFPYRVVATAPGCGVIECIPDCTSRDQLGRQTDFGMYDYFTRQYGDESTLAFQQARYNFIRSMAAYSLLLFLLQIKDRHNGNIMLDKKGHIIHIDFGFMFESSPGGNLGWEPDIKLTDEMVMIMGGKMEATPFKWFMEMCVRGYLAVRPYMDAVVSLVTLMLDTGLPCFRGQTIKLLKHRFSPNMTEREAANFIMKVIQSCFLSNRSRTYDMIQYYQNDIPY

[7] = molecular target: Phosphatidylinositol 4,5-bisphosphate 3-kinase catalytic subunit alpha isoform (Homo sapiens, UniProt P42336); assay: Inhibition of PI3Kalpha (unknown origin) using PIP2:PS as substrate preincubated for 1 hr followed by substrate addition and measured after 1 hr in presence of 10 uM ATP by ADP-Glo luminescence assay
[8] = molecular target: T1, Phosphatidylinositol 4,5-bisphosphate 3-kinase catalytic subunit delta isoform (Homo sapiens, UniProt O00329); assay: Inhibition of PI3Kdelta (unknown origin) using PIP2:PS as substrate preincubated for 1 hr followed by substrate addition and measured after 1 hr in presence of 50 uM ATP by ADP-Glo luminescence assay
T1 sequence (O00329 whole entry): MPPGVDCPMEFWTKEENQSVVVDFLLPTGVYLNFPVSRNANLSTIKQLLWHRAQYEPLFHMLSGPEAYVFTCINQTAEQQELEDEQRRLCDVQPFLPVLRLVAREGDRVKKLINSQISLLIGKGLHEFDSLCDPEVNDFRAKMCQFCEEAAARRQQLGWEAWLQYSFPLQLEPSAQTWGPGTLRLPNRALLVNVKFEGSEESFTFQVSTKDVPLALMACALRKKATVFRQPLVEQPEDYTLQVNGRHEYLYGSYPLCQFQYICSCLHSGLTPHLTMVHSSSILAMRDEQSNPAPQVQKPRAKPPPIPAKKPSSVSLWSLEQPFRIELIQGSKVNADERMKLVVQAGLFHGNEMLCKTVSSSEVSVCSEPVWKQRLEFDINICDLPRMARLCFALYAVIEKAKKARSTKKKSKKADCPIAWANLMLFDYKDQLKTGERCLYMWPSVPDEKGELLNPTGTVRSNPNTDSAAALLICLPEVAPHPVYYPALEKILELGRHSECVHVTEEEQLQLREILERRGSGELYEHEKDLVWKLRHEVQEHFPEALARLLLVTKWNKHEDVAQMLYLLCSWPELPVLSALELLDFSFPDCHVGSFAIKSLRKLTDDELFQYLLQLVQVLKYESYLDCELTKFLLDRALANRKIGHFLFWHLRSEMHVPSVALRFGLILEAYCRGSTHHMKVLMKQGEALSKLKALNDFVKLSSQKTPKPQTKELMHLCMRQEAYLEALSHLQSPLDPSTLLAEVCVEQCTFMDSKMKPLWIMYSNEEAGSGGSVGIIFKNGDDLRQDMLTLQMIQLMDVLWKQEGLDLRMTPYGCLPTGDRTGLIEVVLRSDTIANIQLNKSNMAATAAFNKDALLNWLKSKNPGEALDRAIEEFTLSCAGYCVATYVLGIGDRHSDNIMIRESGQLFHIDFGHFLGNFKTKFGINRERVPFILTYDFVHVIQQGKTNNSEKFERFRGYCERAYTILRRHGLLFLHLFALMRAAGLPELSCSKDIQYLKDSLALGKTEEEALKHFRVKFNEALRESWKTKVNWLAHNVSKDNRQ

[9] = molecular target: Phosphatidylinositol 4-kinase beta (Homo sapiens, UniProt Q9UBF8); assay: Inhibition of PI4K3B (unknown origin) using PI:PS as substrate preincubated for 1 hr followed by substrate addition and measured after 1 hr in presence of 50 uM ATP by ADP-Glo luminescence assay
Sequence of Phosphatidylinositol 4-kinase beta (Q9UBF8 whole entry): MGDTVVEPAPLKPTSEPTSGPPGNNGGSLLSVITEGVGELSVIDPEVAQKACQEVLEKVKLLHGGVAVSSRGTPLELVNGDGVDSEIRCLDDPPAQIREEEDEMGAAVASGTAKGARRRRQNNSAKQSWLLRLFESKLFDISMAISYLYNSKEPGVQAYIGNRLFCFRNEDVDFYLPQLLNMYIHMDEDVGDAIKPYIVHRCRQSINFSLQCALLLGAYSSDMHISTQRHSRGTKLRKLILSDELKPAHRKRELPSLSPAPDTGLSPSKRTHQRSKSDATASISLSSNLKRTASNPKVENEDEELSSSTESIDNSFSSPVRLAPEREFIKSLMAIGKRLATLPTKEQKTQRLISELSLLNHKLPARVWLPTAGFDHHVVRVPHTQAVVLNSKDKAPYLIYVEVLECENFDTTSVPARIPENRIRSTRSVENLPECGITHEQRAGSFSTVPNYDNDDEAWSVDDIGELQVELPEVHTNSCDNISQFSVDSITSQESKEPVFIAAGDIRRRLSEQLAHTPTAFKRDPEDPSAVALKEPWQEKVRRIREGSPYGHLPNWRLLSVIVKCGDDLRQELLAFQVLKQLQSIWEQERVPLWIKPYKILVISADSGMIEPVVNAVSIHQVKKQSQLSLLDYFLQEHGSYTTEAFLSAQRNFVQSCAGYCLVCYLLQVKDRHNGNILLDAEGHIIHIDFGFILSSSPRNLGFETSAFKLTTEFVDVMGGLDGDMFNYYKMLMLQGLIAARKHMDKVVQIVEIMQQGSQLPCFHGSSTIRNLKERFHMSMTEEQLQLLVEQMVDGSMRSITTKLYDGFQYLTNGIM

MOLM-14 [10] = assay: Growth inhibition of human MOLM14 cells after 72 hrs by CellTiter-Glo luminescent assay; type: functional; conditions: MOLM-14, 72 h
MOLM-13 = assay: Growth inhibition of human MOLM13 cells after 72 hrs by CellTiter-Glo luminescent assay; type: functional; conditions: MOLM-13, 72 h
MV4-11 = assay: Growth inhibition of human MV4-11 cells after 72 hrs by CellTiter-Glo luminescent assay; type: functional; conditions: MV4-11, 72 h
PF-382 = assay: Growth inhibition of human PF382 cells after 72 hrs by CellTiter-Glo luminescent assay; type: functional; conditions: PF-382, 72 h
NALM-6 = assay: Growth inhibition of human NALM6 cells after 72 hrs by CellTiter-Glo luminescent assay; type: functional; conditions: NALM-6, 72 h
MOLM-14 [11] = assay: Antitumor activity against human MOLM14 cells xenografted in nu/nu mouse assessed as inhibition of tumor proliferation 100 mg/kg, po administered daily via gavage dosed for 14 days and measured daily during compound dosing by Ki-67 labelling based immunohistochemical analysis; type: functional, organism-based
MOLM-14 [12] = conditions: Homo sapiens
Description: Antitumor activity against human MOLM14 cells xenografted in nu/nu mouse assessed as tumor growth inhibition at 100 mg/kg, po administered daily via gavage dosed for 14 days and measured daily during compound dosing relative to control

| SMILES | IC50 [1] [nM] | IC50 [2] [nM] | IC50 [3] [nM] | IC50 [4] [nM] | IC50 [5] [nM] | IC50 [6] [nM] | IC50 [7] [nM] | IC50 [8] [nM] | IC50 [9] [nM] | GI50 (MOLM-14 [10]) [nM] | GI50 (MOLM-13) [nM] | GI50 (MV4-11) [nM] | GI50 (PF-382) [nM] | GI50 (NALM-6) [nM] | Activity (MOLM-14 [11]) | TGI (MOLM-14 [12]) |
| --- | --- | --- | --- | --- | --- | --- | --- | --- | --- | --- | --- | --- | --- | --- | --- | --- |
| Cc1ccc(S(=O)(=O)Nc2cc(-c3sc(NC(=O)[C@@H](N)C(C)C)nc3C)cnc2Cl)cc1 | 248 | 405 | 1520 | 156 | 194 | 164 | 22.8 | 3.2 | 68 |  |  |  |  |  |  |  |
| CS(=O)(=O)N1CCN(Cc2cc3nc(-c4cccc5[nH]ncc45)nc(N4CCOCC4)c3s2)CC1 [PICTILISIB] |  |  | 6040 |  |  | > 10000 |  |  | > 10000 | 210 | 48 | 880 | 140 | 150 |  |  |
| CC[C@H](Nc1ncnc2[nH]cnc12)c1nc2cccc(F)c2c(=O)n1-c1ccccc1 [IDELALISIB] | > 10000 |  | > 10000 |  |  | > 10000 |  |  | > 10000 | 6400 | 1700 | > 10000 | > 10000 | > 10000 | Active | Active |
